For the test, the target named is T1, recombinant human ALK enzyme (ALK WT) (Homo sapiens, UniProt Q9UM73).
T1 construct: purchased Carna Biosciences 08-518
Kind of test: ALK WT cell free enzymatic assay (TR-FRET). The format is biochemical. Conditions: 1 μM ATP; for IC50: 10 point dose response; for inhibition at 0.1 µM: compound at 100 nM; for inhibition at 0.1 µM / inhibition at 1 µM: 30 min pre-incubation; for inhibition at 1 µM: compound at 1 μM. The procedure, abridged:
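Recombinant human ALK with 40 nM Ultra Light Poly GT, 1 μM ATP and Eu anti-phosphotyrosine antibody, 1% DMSO, pH 7.1 HEPES; 30 min enzyme-compound pre-incubation, then 30 min reaction. TR-FRET 665/615 ratio; percent inhibition at 100 nM and 1 μM, IC50 from 10-point sigmoidal fit.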

T1 sequence (Q9UM73 1058-1620 limits assumed): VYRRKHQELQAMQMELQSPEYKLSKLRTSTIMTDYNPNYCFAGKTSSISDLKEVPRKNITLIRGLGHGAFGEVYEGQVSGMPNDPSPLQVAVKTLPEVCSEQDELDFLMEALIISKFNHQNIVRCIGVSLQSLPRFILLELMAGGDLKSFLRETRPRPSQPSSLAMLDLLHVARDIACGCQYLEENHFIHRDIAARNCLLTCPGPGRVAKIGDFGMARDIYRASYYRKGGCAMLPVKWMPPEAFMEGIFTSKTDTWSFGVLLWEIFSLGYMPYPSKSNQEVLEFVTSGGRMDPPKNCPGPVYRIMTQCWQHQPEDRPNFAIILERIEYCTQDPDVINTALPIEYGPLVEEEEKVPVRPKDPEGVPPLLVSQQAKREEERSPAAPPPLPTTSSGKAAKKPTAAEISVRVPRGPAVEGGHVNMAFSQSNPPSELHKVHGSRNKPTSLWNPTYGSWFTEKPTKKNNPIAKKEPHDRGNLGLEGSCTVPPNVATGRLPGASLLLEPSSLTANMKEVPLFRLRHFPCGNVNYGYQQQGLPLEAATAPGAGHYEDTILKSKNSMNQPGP

Consider `Fc1cccc(Cn2cc(-c3c[nH]c4ncc(-c5ccc(C6CCNCC6)nc5)cc34)cn2)c1` [Example 159, 3-(1-(3-fluorobenzyl)-1H-pyrazol-4-yl)-5-(6-(piperidin-4-yl)pyridin-3-yl)-1H-pyrrolo[2,3-b]pyridine], for which the IC50 is less than 50 nM, the inhibition at 0.1 µM was found to be 91% and the inhibition at 1 µM worked out at 100%.

With `O=C(CC1CC1)N1CCN(c2ccc(-c3cnc4[nH]cc(-c5cnn(Cc6cccc(F)c6)c5)c4c3)cn2)CC1` [Example 160, 2-cyclopropyl-1-(4-(5-(3-(1-(3-fluorobenzyl)-1H-pyrazol-4-yl)-1H-pyrrolo[2,3-b]pyridin-5-yl)pyridin-2-yl)piperazin-1-yl)ethanone], the IC50 fell in the range of 50 to 250 nM, the inhibition at 0.1 µM is 20% and the inhibition at 1 µM came out at 84%.

For `Cc1nn(Cc2cccc(F)c2)c(C)c1-c1c[nH]c2ncc(-c3ccc(N4CCN(C[C@H](C)O)CC4)nc3)cc12` [Example 161, (2S)-1-(4-(5-(3-(1-(3-fluorobenzyl)-3,5-dimethyl-1H-pyrazol-4-yl)-1H-pyrrolo[2,3-b]pyridin-5-yl)pyridin-2-yl)piperazin-1-yl)propan-2-ol], the IC50 was less than 50 nM, the inhibition at 0.1 µM turned out to be 86% and the inhibition at 1 µM was determined as 97%.

For `Cc1c(-c2c[nH]c3ncc(-c4ccc(N5CCN(C[C@H](C)O)CC5)nc4)cc23)cnn1Cc1cccc(F)c1` [Example 162, (S)-1-(4-(5-(3-(1-(3-fluorobenzyl)-5-methyl-1H-pyrazol-4-yl)-1H-pyrrolo[2,3-b]pyridin-5-yl)pyridin-2-yl)piperazin-1-yl)propan-2-ol], the IC50 is less than 50 nM, the inhibition at 0.1 µM worked out at 75% and the inhibition at 1 µM was 96%.

As for `C[C@H](O)CN1CCN(c2cnc(-c3cnc4[nH]cc(-c5cnn(Cc6cccc(F)c6)c5)c4c3)cn2)CC1` [Example 163, (S)-1-(4-(5-(3-(1-(3-fluorobenzyl)-1H-pyrazol-4-yl)-1H-pyrrolo[2,3-b]pyridin-5-yl)pyrazin-2-yl)piperazin-1-yl)propan-2-ol], the IC50 is less than 50 nM, the inhibition at 0.1 µM was 88% and the inhibition at 1 µM is 98%.

As for `C[C@H](O)CN1CCCN(c2ccc(-c3cnc4[nH]cc(-c5cnn(Cc6cccc(F)c6)c5)c4c3)cc2)CC1` [Example 164, (S)-1-(4-(4-(3-(1-(3-fluorobenzyl)-1H-pyrazol-4-yl)-1H-pyrrolo[2,3-b]pyridin-5-yl)phenyl)-1,4-diazepan-1-yl)propan-2-ol], the IC50 was less than 50 nM, the inhibition at 0.1 µM turned out to be 96% and the inhibition at 1 µM is 99%.

Take `Cc1c(-c2c[nH]c3ncc(-c4ccc(C5CCNCC5)c(F)c4)cc23)cnn1Cc1cccc(F)c1` [Example 165, 5-(3-fluoro-4-(piperidin-4-yl)phenyl)-3-(1-(3-fluorobenzyl)-5-methyl-1H-pyrazol-4-yl)-1H-pyrrolo[2,3-b]pyridine]: the IC50 was less than 50 nM, the inhibition at 0.1 µM is 99% and the inhibition at 1 µM came to 100%.

On to `Cc1nn(Cc2cccc(F)c2)cc1-c1c[nH]c2ncc(-c3ccc(C4CCNCC4)c(F)c3)cc12` [Example 166, 5-(3-fluoro-4-(piperidin-4-yl)phenyl)-3-(1-(3-fluorobenzyl)-3-methyl-1H-pyrazol-4-yl)-1H-pyrrolo[2,3-b]pyridine], for which the IC50 was less than 50 nM, the inhibition at 0.1 µM was determined as 90% and the inhibition at 1 µM came out at 98%.

In the case of `Fc1cc(-c2cnc3[nH]cc(-c4cnn(CCc5ccccc5)c4)c3c2)ccc1C1CCNCC1` [Example 167, 5-(3-fluoro-4-(piperidin-4-yl)phenyl)-3-(1-phenethyl-1H-pyrazol-4-yl)-1H-pyrrolo[2,3-b]pyridine], the IC50 was in the range of 50 to 250 nM, the inhibition at 0.1 µM stood at 69% and the inhibition at 1 µM is 97%.

The values above are taken from patent publication US9353107B2 (Aurigene Discovery Technologies Limited, priority 2012, dated 2016).
